Experimental data as given in patent publication US12606797B2, “Methods of detection of mechanically-activated platelet activation and uses thereof” (Arizona Board of Regents on Behalf of the University of …, priority 2018, dated 2026).

Key:
[1] = system: integrin GPIIb/IIIa activation on gel-filtered platelets; assay: Flow cytometry of integrin GPIIb/IIIa activation (anti-CD41/CD61-FITC PAC-1 and anti-CD41-APC double staining); format: cell-based, human; details: for number of CD41/CD61-positive platelets following GFP stimulation (in words): 2.5 mM CaCl2, vs intact platelets; for number of platelets presenting activated GPIIb/IIIa (CD41/CD61-positive among CD41-positive) / elevation of number of platelets presenting activated GPIIb/IIIa as compared with intact platelets: GFP, 10 uM ADP, 1 U/mL thrombin; for number of platelets presenting activated GPIIb/IIIa (CD41/CD61-positive among CD41-positive): 2.5 mM CaCl2, gate ≥4000 AU, intact platelets 6.7±2.9%
Method: (§1) To induce biochemical activation, GFP (2×10^4 platelets/μL, final volume 100 μL) were treated with biochemical agonists mentioned above in presence of 2.5 mM CaCl2), mixed gently and incubated undisturbed for 15 minutes at room temperature. Then APC-conjugated anti-CD62P (clone Psel.KO2.3, eBioscience, San Diego, CA) and FITC-labeled annexin V (eBioscience, San Diego, CA) were added to indicate platelet a-granule secretion and phosphatidylserine externalization (PSE) during platelet biochemical activation. Integrin GP αIIbβ3 activation was evaluated by double-staining technique. […] A pair of antibodies against αIIbβ3 was added simultaneously into a test tube containing activated platelet sample to identify the number of platelets exposing activated αIIbβ3 among all αIIbβ3-expressing platelet population. Cells were incubated with annexin V or antibodies for 30 minutes at room temperature in the dark, washed by centrifugation (5000 rpm, 5 min), resuspended in 1 ml of Ca-free 0.05 M phosphate buffer (pH-7.4) and transferred in polystyrene tube for flow cytometry. Flow cytometry analysis was performed within 15 minutes after sample preparation.
(§2) Flow cytometry was performed on FACS Canto II (BD Biosciences, San Jose, CA) using the following configurations: HeNe red laser (633 nm) and 660/20 filter—for APC, solid state blue laser (488 nm) and 530/30 filter—for FITC-stained cell detection. Single platelets were distinguished from their aggregates and microparticles based on their characteristic forward versus side scatter. […] BD FACSDiva™ software was applied to analyze flow cytometry data statistics (percentage of marker-positive platelets among whole platelet population and their median fluorescence intensity).
To assess the magnitude of integrin GPIIb/IIIa activation after platelet stimulation with constant shear or biochemical agonists, the number of whole GPIIb/IIIa-positive platelet population was compared with the number of those presenting activated form of the integrin on their membrane. For this purpose, double staining with APC-conjugated anti-CD41 and FITC-conjugated anti-CD41/CD61 was applied as describe in the methods described above. Among parental CD41-positive platelet population, CD41/CD61-positive cells were distinguished based on their FITC-fluorescence intensity level (≥4000 AU) and assumed as presenting activated form of integrin GPIIb/IIIa on their surface (FIGS. 4A-4G, sub-population P3).

[2] = system: human platelets (GFP, PRP); assay: Platelet aggregation induced with biochemical agonists (optical aggregometer); format: cell-based; details: 1 mM CaCl2, 5 min, 37° C.; for ability to induce platelet aggregation in GFP: gel-filtered platelets, 32 μM TRAP6, 1 U/mL thrombin, 100 μg/mL collagen, 1 mM arachidonic acid
Method: Platelet aggregation was assessed in PRP or GFP samples employing dual channel optical aggregometer (Model 560-VS, Chrono-Log Corporation, Havertown, PA). […] Platelet count in aggregation mixture was adjusted to 150-200×10^3 plt/μL (in GFP) and to 300-350×10^3 plt/μL (in PRP), final CaCl2 concentration was 1 mM. Aggregation was started by adding mentioned agonists and running for 5 minutes at 37° C. with 1000 rpm stirring. The changes in relative light transmittance were recorded, and arbitrary values for each aggregation curve were calculated with Aggrolink software (Chrono-Log Corporation, Havertown, PA).
(§3) To define the molecular signature of SMPA, biochemical versus mechanical platelet activation by uniform shear stress applied in the hemodynamic shearing device (HSD) was compared. […] Mechanical platelet activation was obtained via GFP exposure to uniform continuous shear in HSD as described above in “Shear-mediated platelet activation”. Physiologically relevant shear stress levels (30 and 50 dynes/cm^2) close to those found in blood stream vs. sub-pathological shear conditions (70 dynes/cm^2) existing within MCS were examined. Initially, the P-selectin exposure, as a known marker of platelet activation and α-granule secretion, was detected employing mono immunostaining and quantified by flow cytometry. Those cells showing high fluorescence intensity (≥3000 AU) were gated as P-selectin positive platelets and marked as sub-population P6 (FIGS. 2A-2G).

[3] = system: procoagulant activity of gel-filtered platelets; assay: Prothrombinase-based Platelet Activation State (PAS) assay, thrombin generation on platelet surface; format: cell-based, human; details: platelets 5×10^3 cells/μL, 200 nM acetylated prothrombin, 100 pM factor Xa, 37° C., 10 minutes
Excerpt: PAS was quantified by chemically modified prothrombinase-based chromogenic assay developed by Jesty and Bluestein (Jesty & Bluestein, Anal. Biochem. (1999), Jesty et al., Platelets, vol. 14, no. 3, pp. 143-149, 2003). The assay measures the rate of acetylated thrombin generation from acetylated proenzyme cleavage by factor Xa in presence of activated platelets. […] Activated, but not resting, platelets present factor Va and negatively charged phospholipids (mostly phosphatidylserine) on their surface for prothrombinase complex formation and thrombin generation. Thus, the rate of enzymatic cleavage of chromogenic substrate Chromozym TH (Tosyl-Gly-Pro-Arg-4-nitranilide acetate, Roche Diagnostics GmbH, Mannheim, Germany) by acetylated thrombin reflects the value of initial activation state of the platelets tested (Jesty & Bluestein, Anal. Biochem. (1999), Rubenstein et al., Circulation, (2004)).
Platelet samples preliminary stimulated with biochemical activators, shear or sonication (platelet count—5×10^3 cells/μL) were incubated with 200 nM acetylated prothrombin, 100 pM factor Xa (Enzyme Research Laboratories, South Bend, IN), 5 mM CaCl2) in a volume of 100 μL 20 mM HEPES, pH 7.4, containing 130 mM NaCl and 0.1% BSA at 37° C. for 10 minutes. Then, 10 μL of each timed sample was measured for thrombin activity in microplate wells, containing 0.3 mM Cromozyme TH, 3 mM EDTA in 20 mM HEPES, pH 7.4, containing 130 mM NaCl and 0.1% BSA. Kinetic change of absorbance (λ=405 nm) was measured for 7 minutes at room temperature using microplate reader Versa MAX (Molecular Devices Corp., Sunnyvale, CA). The value of PAS or initial rate of thrombin generation was calculated as a slope of kinetic curve (ΔA405/min) with SoftMax Pro6 Software.

[4] = system: P-selectin exposure on gel-filtered platelets; assay: Flow cytometry of platelet P-selectin exposure (anti-CD62P-APC) after biochemical activation; format: cell-based, human; details: 2.5 mM CaCl2, room temperature; for P-selectin exposure (in words): GFP, 32 μM TRAP6, 1 U/mL thrombin, 100 μg/mL collagen; for number of CD62P-positive cells, % of whole platelet population: GFP 2×10^4 platelets/μL, 10 uM ADP, 10 μg/mL epinephrine, 1 mM arachidonic acid, gate ≥3000 AU
Method: as §1, §2, §3

[5] = system: phosphatidylserine externalization on gel-filtered platelets; assay: Annexin V binding assay of phosphatidylserine externalization (flow cytometry); format: cell-based, human; details: GFP, 2.5 mM CaCl2; for annexin V binding after platelet stimulation (in words): agonist taken alone
Method: as §1, §2
To detect phosphatidylserine exposure, an annexin V binding assay is extensively utilized. The principle of the assay is based on the high affinity binding of protein annexin V labeled with fluorescence dye to phosphatidylserine on platelet surface with the aid of Ca2+ ions (Demchenko, Cytotechnology, vol. 65, no. 2, pp. 157-72, March (2013)).

[6] = system: human platelets; details: not sensitive to cyclooxygenase inhibitors; cited from earlier work

thrombin receptor activating peptide-6 [TRAP-6]
number of CD41/CD61-positive platelets following GFP stimulation (in words) [1]: not significantly elevated
ability to induce platelet aggregation in GFP [2]: induce platelet aggregation
thrombin generation / amidolytic activity in presence of stimulated platelets (PAS assay, in words) [3]: no amidolytic activity was detected
P-selectin exposure (in words) [4]: dramatic augmentation of P-selectin exposure
annexin V binding after platelet stimulation (in words) [5]: No annexin V binding

CNC[C@H](O)c1ccc(O)c(O)c1 [epinephrine]
number of CD41/CD61-positive platelets following GFP stimulation (in words) [1]: not significantly elevated
thrombin generation / amidolytic activity in presence of stimulated platelets (PAS assay, in words) [3]: no amidolytic activity was detected
number of CD62P-positive cells, % of whole platelet population [4]: 18.6±1.5%
annexin V binding after platelet stimulation (in words) [5]: No annexin V binding

Nc1ncnc2c1ncn2[C@@H]1O[C@H](COP(=O)(O)OP(=O)(O)O)[C@@H](O)[C@H]1O [ADP, Adenosine DiPhosphate]
number of platelets presenting activated GPIIb/IIIa (CD41/CD61-positive among CD41-positive) [1]: 28.0±8.9%
elevation of number of platelets presenting activated GPIIb/IIIa as compared with intact platelets [1]: 4.2 times
ability to induce platelet aggregation in PRP ([2]; platelet-rich plasma, 10 uM ADP, 10 μg/mL epinephrine): induce platelet aggregation
thrombin generation / amidolytic activity in presence of stimulated platelets (PAS assay, in words) [3]: no amidolytic activity was detected
number of CD62P-positive cells, % of whole platelet population [4]: 46.8±3.9%
annexin V binding after platelet stimulation (in words) [5]: No annexin V binding

thrombin
number of platelets presenting activated GPIIb/IIIa (CD41/CD61-positive among CD41-positive) [1]: 63.5±10.2%
elevation of number of platelets presenting activated GPIIb/IIIa as compared with intact platelets [1]: 9.6 times
ability to induce platelet aggregation in GFP [2]: induce platelet aggregation
P-selectin exposure (in words) [4]: dramatic augmentation of P-selectin exposure
annexin V binding after platelet stimulation (in words) [5]: No annexin V binding

collagen
number of CD41/CD61-positive platelets following GFP stimulation (in words) [1]: not significantly elevated
ability to induce platelet aggregation in GFP [2]: induce platelet aggregation
thrombin generation / amidolytic activity in presence of stimulated platelets (PAS assay, in words) [3]: no amidolytic activity was detected
P-selectin exposure (in words) [4]: failed to induce high P-selectin exposure
annexin V binding after platelet stimulation (in words) [5]: No annexin V binding

CCCCC/C=C\C/C=C\C/C=C\C/C=C\CCCC(=O)O [arachidonic acid]
number of CD41/CD61-positive platelets following GFP stimulation (in words) [1]: not significantly elevated
ability to induce platelet aggregation in GFP [2]: induce platelet aggregation
AA concentration required for Ca^2+ influx [6]: 60 µM
thrombin generation / amidolytic activity in presence of stimulated platelets (PAS assay, in words) [3]: comparable with sonicated GFP sample
number of CD62P-positive cells, % of whole platelet population [4]: 52.1±6.8%
number of annexin V-positive platelets, % of whole platelet population ([5]; arachidonic acid 1 mM): 52.12±6.79%
